Assay results as given in PubChem BioAssay (NCI).
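48-hour exposure; five concentrations; linearly interpolated endpoints. Definition used: TGI = concentration required for complete inhibition of growth.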

Key:
Test in all cases: NCI anticancer screen, dose series, 48 h
T-47D breast = system: T-47D breast
SW-620 colon = system: SW-620 colon
SNB-19 CNS = system: SNB-19 CNS
KM12 colon = system: KM12 colon
MDA-MB-435 = system: MDA-MB-435
LXFL 529 NSCLC = system: LXFL 529 NSCLC
XF 498 CNS = system: XF 498 CNS
M19-MEL melanoma = system: M19-MEL melanoma
DMS 114 small cell lung = system: DMS 114 small cell lung
SNB-78 CNS = system: SNB-78 CNS
HOP-18 NSCLC = system: HOP-18 NSCLC
RXF-631 renal = system: RXF-631 renal
KM20L2 colon = system: KM20L2 colon
DLD-1 colon = system: DLD-1 colon
DMS 273 small cell lung = system: DMS 273 small cell lung

SMILES | TGI (T-47D breast) [µM] | TGI (SW-620 colon) [µM] | TGI (SNB-19 CNS) [µM] | TGI (KM12 colon) [µM] | TGI (MDA-MB-435) [µM] | TGI (LXFL 529 NSCLC) [µM] | TGI (XF 498 CNS) [µM] | TGI (M19-MEL melanoma) [µM] | TGI (DMS 114 small cell lung) [µM] | TGI (SNB-78 CNS) [µM] | TGI (HOP-18 NSCLC) [µM] | TGI (RXF-631 renal) [µM] | TGI (KM20L2 colon) [µM] | TGI (DLD-1 colon) [µM] | TGI (DMS 273 small cell lung) [µM]
COC(=O)C1Cc2c([nH]c3ccccc23)-c2[nH]c3ccccc3c2CC(NC(C)=O)C(=O)NCC(=O)NCC(=O)N1 (centres undefined) | > 100 | > 100 | > 100 | > 100 | > 100 | – | – | – | – | – | – | – | – | – | –
COC1=CC(=O)c2c(n[nH]c2CCNC(=O)OCc2ccccc2)C1=O | 18.3 | 36.8 | 39.8 | 22.9 | 4 | – | – | – | – | – | – | – | – | – | –
CN(C)CCN=C1Nc2ccccc2C(=O)N2CSCC12 (centres undefined) | > 100 | > 100 | > 100 | > 100 | > 100 | – | – | – | – | – | – | – | – | – | –
CC1=NN(C(=O)CC(=O)Nc2ccc(Cl)cc2)C(=O)C1N=Nc1ccc(S(=O)(=O)c2ccc(N=NC3C(=O)N(C(=O)CC(=O)Nc4ccc(Cl)cc4)N=C3C)cc2)cc1 (centres undefined) | > 100 | > 100 | > 100 | > 100 | > 100 | – | – | – | – | – | – | – | – | – | –
CC(CC(C)[C@H]1CCC2[C@H]3C(CC(=O)[C@@]21C)[C@@]1(C)CCC(O)C[C@H]1C[C@@H]3O)C(=O)O (some centres undefined) | > 100 | > 100 | > 100 | > 100 | > 100 | – | – | – | – | – | – | – | – | – | –
COc1ccc(OC2OC(CO)C(O)C(O)C2O)cc1 (centres undefined) | > 100 | > 100 | > 100 | > 100 | > 100 | – | – | – | – | – | – | – | – | – | –
O=C1O/C(=C(/Cl)c2c3ccccc3cc3ccccc23)c2ccccc21 | > 100 | > 100 | > 100 | 17.3 | 58 | – | – | – | – | – | – | – | – | – | –
COc1ccc(-c2cc(=O)c3ccc(F)cc3[nH]2)cc1 | – | > 100 | > 100 | > 100 | – | > 100 | > 100 | > 100 | > 100 | > 100 | > 100 | > 100 | > 100 | > 100 | –
COc1cc(OC)c2nc(C)c3c(c2c1)OCC3 | > 100 | > 100 | > 100 | > 100 | > 100 | – | – | – | – | – | – | – | – | – | –
C=CCN(N=O)C(=O)N(CCCCC(NC(C)=O)C(=O)NCc1ccccc1)Cc1ccccc1 (centres undefined) | – | > 100 | > 100 | > 100 | – | > 100 | > 100 | > 100 | 86.4 | – | 81.6 | > 100 | 36.7 | – | > 100
CC1(C)CC2C(/C1=N/O)C1(C)CCCC2(C)C1O (centres undefined) | > 100 | > 100 | > 100 | > 100 | > 100 | – | – | – | – | – | – | – | – | – | –
CCOC(=O)C(C)c1nc2cc(C(F)(F)F)ccc2[nH]c1=O (centres undefined) | 67.7 | > 100 | > 100 | > 100 | > 100 | – | – | – | – | – | – | – | – | – | –
O=C1COc2cc3c(cc2N1)SCCC(=O)N3 | – | > 100 | > 100 | > 100 | – | > 100 | > 100 | > 100 | > 100 | – | > 100 | > 100 | – | > 100 | > 100
CCNC1=C(NC(=O)c2ccc(OC)cc2)C(=O)c2ccccc2C1=O | > 100 | > 100 | > 100 | > 100 | 31.1 | – | – | – | – | – | – | – | – | – | –
[O-]/[N+](=N/c1ncc(-c2ccccc2)cn1)c1ncc(-c2ccccc2)cn1 | > 100 | > 100 | > 100 | > 100 | > 100 | – | – | – | – | – | – | – | – | – | –
O=C(Nc1ccccc1[N+](=O)[O-])C(=O)C(C(=O)c1ccccc1-c1ccccc1)C1OC(=O)c2ccccc21 (centres undefined) | – | 36.7 | 33.2 | 30.6 | – | 23 | – | 27.5 | 31.7 | > 100 | 31.6 | 35.3 | 34.9 | 44.8 | 38.5
O=C(NN1C(=O)C(Cl)C1c1cccc(Cl)c1)c1ccccc1O (centres undefined) | – | – | > 100 | > 100 | – | > 100 | 86.7 | > 100 | – | > 100 | 80.7 | – | – | – | > 100
